Calls of active or inactive are those of the source.
What was measured:
[1] = A549 cell cytotoxicity, dose response, cytotoxicity control, plate reader, cherry-pick, antagonist series (AID 743412); format: functional, cell-based
[2] = blockers of bursicon-stimulated LGR2 cAMP reporter – cell-based, HEK293, CRE-luciferase reporter, cherry pick, set 2, dose response (AID 743343); format: functional;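 note: transfected cells were stimulated with diluted bursicon conditioned medium after compound addition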
[3] = blockade of melanocortin 4 receptor signaling – cell-based, plate reader, cherry pick, counter-screen for LGR2 antagonist project, dose response (AID 743444); format: functional;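 note: transfected HEK 293 cells stimulated with alpha-MSH peptide; potency of inhibitors of the alpha-MSH evoked signal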
[4] = viability loss in HEK293 cells – cell-based, plate reader, cherry-picked samples, cytotoxicity control, dose response (AID 743446); format: functional
[5] = target: T1, High affinity choline transporter 1 (Homo sapiens, UniProt Q9GZV3); experiment: inhibition of SLC5A7-mediated choline transport – cell-based, HEK-293 hCHT, [3H]-choline uptake, dose response (AID 652177); format: functional
T1 sequence (Q9GZV3 whole entry): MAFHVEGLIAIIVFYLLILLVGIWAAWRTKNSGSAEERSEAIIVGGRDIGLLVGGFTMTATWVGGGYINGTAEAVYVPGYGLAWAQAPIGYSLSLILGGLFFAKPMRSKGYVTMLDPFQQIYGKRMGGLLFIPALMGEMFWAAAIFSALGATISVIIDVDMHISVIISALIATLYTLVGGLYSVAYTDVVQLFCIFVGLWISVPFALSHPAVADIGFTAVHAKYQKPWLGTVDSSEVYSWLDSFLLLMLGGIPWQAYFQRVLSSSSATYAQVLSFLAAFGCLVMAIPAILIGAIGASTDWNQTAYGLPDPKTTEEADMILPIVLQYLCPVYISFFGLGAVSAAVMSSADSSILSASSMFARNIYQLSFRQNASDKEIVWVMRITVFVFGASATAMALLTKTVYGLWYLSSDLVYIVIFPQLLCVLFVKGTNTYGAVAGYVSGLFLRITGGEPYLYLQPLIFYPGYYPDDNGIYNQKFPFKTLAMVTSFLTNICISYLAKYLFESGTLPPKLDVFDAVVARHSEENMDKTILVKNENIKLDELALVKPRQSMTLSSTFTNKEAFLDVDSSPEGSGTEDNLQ

[6] = target: Paired box protein Pax-8 (Homo sapiens, UniProt Q06710); experiment: PAX8 transcriptional activity inhibition in RMG-I – RMG-I cells, luciferase, cherry-pick, dose response (AID 687027); format: functional, cell-based;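 note: luciferase reporter driven by Pax8 target thyroperoxidase promoter measured by SteadyGlo luminescence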
[7] = IGROV1 cell killing – plate reader, dry powder samples, PAX8 inhibitor project, dose response (AID 743043); format: functional, cell-based; details: IGROV-1
[8] = target: Fructose-bisphosphate aldolase (Mycobacterium tuberculosis, UniProt P9WQA3); experiment: Fluorescence-based biochemical high throughput dose response assay for inhibitors of the fructose-bisphosphate aldolase (FBA) of M. tuberculosis.; format: functional
[9] = target: T2, Hepatocyte nuclear factor 4-alpha (Homo sapiens, UniProt P41235); format: functional, cell-based;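 note: biochemical luminescence-based dose-response counterscreen measuring inhibition of HNF4 dimerization, run alongside a screen for blockers of ABHD5–perilipin-5 interaction; split luciferase complementation of HNF4 fusion proteins in cell lysate measuring dimerization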
T2 sequence (P41235 whole entry): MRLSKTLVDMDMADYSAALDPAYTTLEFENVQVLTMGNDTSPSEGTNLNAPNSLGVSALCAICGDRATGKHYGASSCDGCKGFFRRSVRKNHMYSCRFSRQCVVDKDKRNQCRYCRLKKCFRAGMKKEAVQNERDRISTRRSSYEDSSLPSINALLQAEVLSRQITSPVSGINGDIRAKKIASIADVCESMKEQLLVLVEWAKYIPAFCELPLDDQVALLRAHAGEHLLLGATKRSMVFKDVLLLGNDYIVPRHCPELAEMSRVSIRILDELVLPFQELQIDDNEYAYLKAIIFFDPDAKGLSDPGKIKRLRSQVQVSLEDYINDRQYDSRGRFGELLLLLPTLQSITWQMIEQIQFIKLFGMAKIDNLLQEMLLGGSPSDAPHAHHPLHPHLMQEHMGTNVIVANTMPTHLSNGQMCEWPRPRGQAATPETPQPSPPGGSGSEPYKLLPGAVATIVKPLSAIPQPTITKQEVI

[10] = reduced cellular PGC1a acetyl-lysine signal – cell-based, cherry-picked samples, dose response (AID 720514); format: functional;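 note: potency may reflect raised or lowered acetylation signal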
[11] = general cell-killing toxicity readout – plate reader, dry powder samples, cytotoxicity control for PAX8 inhibitor project, dose response (AID 743021); format: functional, cell-based
[12] = system: H9c2; experiment: cells; format: functional, cell-based; details: Rattus norvegicus, H9c2, Myocardium;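 note: confirmatory concentration-response retest of ultra-high-throughput screening hits for modulation of myocardial damage; cell death induced by hydrogen peroxide oxidative stress; compound pretreatment for 60 min then peroxide exposure for 2 h; potency is for protecting the cells against peroxide damage rather than for killing them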
[13] = target: Botulinum neurotoxin type F (Clostridium botulinum, UniProt P30996); experiment: High-throughput multiplex microsphere dose response for inhibitors of toxin protease, specifically Botulinum neurotoxin light chain F protease, compounds from Cherry Pick 02.; format: functional; details: read-out: EC50_MICROM
[14] = target: T3, RNA-binding protein pos-1 (Caenorhabditis elegans, UniProt G5EF15); experiment: disruptors of C. elegans POS-1 RNA interaction – biochemical, fluorescence polarization, dose response (AID 1964);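 note: purified POS-1 fused to maltose binding protein made in E. coli; potency of compounds blocking POS-1 binding to fluorescent RNA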
T3 sequence (G5EF15 whole entry): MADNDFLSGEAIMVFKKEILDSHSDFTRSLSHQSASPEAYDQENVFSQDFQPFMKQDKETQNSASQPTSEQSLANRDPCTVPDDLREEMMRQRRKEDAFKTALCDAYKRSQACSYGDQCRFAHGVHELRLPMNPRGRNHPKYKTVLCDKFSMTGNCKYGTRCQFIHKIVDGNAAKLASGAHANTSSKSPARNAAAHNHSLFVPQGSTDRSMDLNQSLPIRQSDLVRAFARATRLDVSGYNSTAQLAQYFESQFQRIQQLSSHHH

[15] = target: T4, Zinc finger protein mex-5 (Caenorhabditis elegans, UniProt Q9XUB2); experiment: potency of MEX-5 RNA-binding blockers – biochemical, C. elegans, fluorescence polarization, dose response (AID 1960)
T4 sequence (Q9XUB2 whole entry): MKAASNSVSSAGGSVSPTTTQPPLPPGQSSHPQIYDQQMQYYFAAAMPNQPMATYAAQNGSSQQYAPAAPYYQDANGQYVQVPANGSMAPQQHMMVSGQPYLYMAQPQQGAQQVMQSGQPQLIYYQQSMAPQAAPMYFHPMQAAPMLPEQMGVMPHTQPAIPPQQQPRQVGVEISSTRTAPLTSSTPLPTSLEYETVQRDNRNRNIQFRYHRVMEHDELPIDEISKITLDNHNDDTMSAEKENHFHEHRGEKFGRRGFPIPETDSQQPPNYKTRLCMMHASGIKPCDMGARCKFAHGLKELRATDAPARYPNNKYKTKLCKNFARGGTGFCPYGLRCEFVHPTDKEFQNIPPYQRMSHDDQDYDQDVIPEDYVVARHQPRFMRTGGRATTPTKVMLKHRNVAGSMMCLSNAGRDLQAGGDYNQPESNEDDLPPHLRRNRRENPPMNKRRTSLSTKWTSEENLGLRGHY

[16] = target: Kallikrein-7 (Homo sapiens, UniProt P49862); experiment: Fluorescence Intensity-based biochemical primary high throughput dose response assay to identify activators of kallikrein-7 (K7) zymogen.
[17] = optical artefact potency, substrate without enzyme – biochemical, fluorescence intensity, triplicate, artefact control for kallikrein-7 zymogen activator project, dose response (AID 720493)
[18] = blockers of HIV-1 envelope-mediated cell-cell fusion – cherry-pick, dose response (AID 652057); format: functional, cell-based
[19] = blockers of HIV-1 ZM109 envelope-driven cell-cell fusion – HeLa effector, CEM target cells, luciferase, cherry-pick, dose response (AID 652058); format: functional, cell-based;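 note: luciferase signal from HIV-1 Env mediated cell-cell fusion of effector and target cells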
[20] = off-target signal loss in HeLa-CEM21 co-culture – HeLa F-luc CTL cells, cherry-picked, counter-screen for HIV-1 Env fusion inhibitor project, dose response (AID 652040); format: functional, cell-based;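 note: potency for signal decrease marking cytotoxic or nonspecific inhibition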
[21] = HIV-1 AD8 envelope cell-cell fusion blockers – cherry-pick, dose response (AID 652062); format: functional, cell-based;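 note: luciferase signal from cell-cell fusion driven by HIV-1 clade B AD8 Env; potency is for inhibitors of fusion seen as a drop in luminescence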

Chain of Paired box protein Pax-8 (Q06710 whole entry): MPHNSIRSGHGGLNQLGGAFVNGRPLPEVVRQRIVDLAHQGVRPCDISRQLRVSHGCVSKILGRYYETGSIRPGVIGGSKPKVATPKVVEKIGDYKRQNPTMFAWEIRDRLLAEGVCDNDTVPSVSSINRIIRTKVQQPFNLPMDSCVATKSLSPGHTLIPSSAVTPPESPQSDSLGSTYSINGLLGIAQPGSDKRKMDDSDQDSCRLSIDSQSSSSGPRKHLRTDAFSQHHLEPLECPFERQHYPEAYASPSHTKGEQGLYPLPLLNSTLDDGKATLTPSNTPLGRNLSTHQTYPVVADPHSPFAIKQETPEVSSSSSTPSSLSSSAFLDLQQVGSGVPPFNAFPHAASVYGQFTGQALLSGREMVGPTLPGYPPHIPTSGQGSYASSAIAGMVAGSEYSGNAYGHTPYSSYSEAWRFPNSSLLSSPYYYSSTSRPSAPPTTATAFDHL
Chain of Fructose-bisphosphate aldolase (P9WQA3 whole entry, the tested form may be a part): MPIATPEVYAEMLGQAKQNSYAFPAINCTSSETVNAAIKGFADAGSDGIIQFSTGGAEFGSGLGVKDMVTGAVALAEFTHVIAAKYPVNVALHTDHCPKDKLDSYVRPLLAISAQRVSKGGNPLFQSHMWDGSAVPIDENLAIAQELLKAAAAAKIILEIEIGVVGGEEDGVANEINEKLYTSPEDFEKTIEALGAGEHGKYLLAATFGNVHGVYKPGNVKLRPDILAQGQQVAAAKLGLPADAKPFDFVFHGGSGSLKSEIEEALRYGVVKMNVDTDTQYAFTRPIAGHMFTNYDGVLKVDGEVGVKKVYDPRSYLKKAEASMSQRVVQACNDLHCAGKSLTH
Chain of Botulinum neurotoxin type F (P30996 1-436 limits assumed): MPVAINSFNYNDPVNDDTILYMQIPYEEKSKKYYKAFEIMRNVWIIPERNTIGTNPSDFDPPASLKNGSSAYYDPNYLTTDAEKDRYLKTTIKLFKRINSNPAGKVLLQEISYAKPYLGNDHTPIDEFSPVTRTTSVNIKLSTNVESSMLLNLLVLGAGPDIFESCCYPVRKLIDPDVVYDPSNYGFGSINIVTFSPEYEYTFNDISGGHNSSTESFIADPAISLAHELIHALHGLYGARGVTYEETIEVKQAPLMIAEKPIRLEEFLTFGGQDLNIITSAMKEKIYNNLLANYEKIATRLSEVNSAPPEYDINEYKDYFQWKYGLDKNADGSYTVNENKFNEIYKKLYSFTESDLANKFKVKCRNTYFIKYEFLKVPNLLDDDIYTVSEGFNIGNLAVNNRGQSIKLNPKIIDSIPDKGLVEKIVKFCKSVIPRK
Chain of Kallikrein-7 (P49862 whole entry): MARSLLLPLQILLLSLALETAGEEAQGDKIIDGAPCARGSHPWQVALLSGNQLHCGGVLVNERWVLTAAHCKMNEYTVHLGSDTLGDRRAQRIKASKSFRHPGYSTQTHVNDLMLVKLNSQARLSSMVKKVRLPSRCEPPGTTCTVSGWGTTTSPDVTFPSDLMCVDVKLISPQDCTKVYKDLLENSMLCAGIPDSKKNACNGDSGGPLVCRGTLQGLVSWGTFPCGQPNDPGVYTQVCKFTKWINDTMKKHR

Q: With `N#C[C@@H]1[C@H](c2ccc(C#Cc3ccccc3F)cc2)[C@@H](CO)N1C(=O)C1CC1` as the compound, how does the AC50 [1] read?
A: Its AC50 is 24.9 µM (active).

Q: What about the AC50 [2] of the same compound?
A: Its AC50 is 5.15 µM (active).

Q: And the AC50 [3]?
A: The AC50 was 5.44 µM (active).

Q: And the AC50 [4]?
A: The AC50 was 33.5 µM (active).

Q: With `COc1ccc(C(=O)NCCN2CCCC2)cc1OC1CCN(C(C)C)CC1` as the compound, how does the IC50 [5] read?
A: The IC50 was 1.84 µM (active).

Q: Which AC50 [6] does the source give for `C[C@H]1CCCCO[C@H](CN(C)C(=O)C2CCCCC2)[C@@H](C)CN([C@@H](C)CO)C(=O)c2cc(NC(=O)Nc3ccc(F)cc3)ccc2O1` here?
A: Its AC50 is 8.1 µM (active).

Q: And the AC50 [7]?
A: The AC50 was 57.6 µM (active).

Q: For `CCN(CC)CCCNC(=O)CCC(=O)Nc1ccc2nc(N3CCC(C)CC3)cc(C)c2c1`, which IC50 [8] is on record?
A: Its IC50 is > 0.37 µM (active).

Q: For `C#CCN(C[C@@H]1[C@@H](OC(=O)NCCCCCC)[C@@H](OC(=O)NCCCCCC)Cn2c(=O)ccc(=O)n21)S(=O)(=O)c1ccc(C)cc1`, which IC50 [9] is on record?
A: The IC50 was 34.7 µM (inactive).

Q: What about the AC50 [6] of the same compound?
A: The AC50 was 4.18 µM (active).

Q: And the AC50 [10]?
A: Its AC50 is 4.88 µM (active).

Q: What about the AC50 [11] of the same compound?
A: Its AC50 is 38.3 µM (active).

Q: Which results are given for `COc1ccc(-c2oc3c(OC)c(OC)c(OC)c(O)c3c(=O)c2OC)cc1OC`?
A: IC50 [12]: > 79 µM (inactive); EC50 [13]: > 20 µM (inactive)

Q: With `Cc1ccc(/C=C2\Oc3c(ccc(O)c3CN3CCN(C)CC3)C2=O)cc1` as the compound, how does the EC50 [14] read?
A: Its EC50 is 43.7 µM (active).

Q: What about the EC50 [15] of the same compound?
A: The EC50 was 153 µM (active).

Q: And the EC50 [16]?
A: The EC50 was 12.5 µM (inactive).

Q: And the EC50 [17]?
A: The EC50 was > 7.73 µM (active).

Q: Which AC50 [18] does the source give for `CCC(NS(=O)(=O)c1c(C)nc(O)nc1O)C12CC3CC(CC(C3)C1)C2` (configuration not stated) here?
A: Its AC50 is 7.48 µM (active).

Q: What about the AC50 [19] of the same compound?
A: The AC50 was 7.79 µM (active).

Q: What about the AC50 [20] of the same compound?
A: The AC50 was 11.8 µM (active).

Q: What about the AC50 [21] of the same compound?
A: The AC50 was 7.16 µM (active).

— ChEMBL document CHEMBL1201862, “PubChem BioAssay data set” (2004)
